We go through nine molecules from US20150073038A1 (Marina Biotech, Inc., priority 2009, published 2015).

One data set is described as follows: TNS dye assay for pKa. Conditions: pH 3.0 to 11.0, 30 min at 37° C.; for pKa: liposomes of the lipid with TNS dye in universal buffer, pH 3, liposome test sample, read-out: pKa as measured by TNS dye assay; for pKa as measured by TNS dye assay: liposome test sample. It is filed as physicochemical. As for the experimental part: To measure pH responsive fluorescence, a TNS/Liposome reaction mixture was prepared as follows: 16 μL of TNS at 1 mg/mL (dissolved in 20% DMF), 160 μL of liposome test sample at 1 mM and 3824 μL of H20. Briefly, in a Costar 96 well plate; 100 μL/well of 2× universal buffer was added (50 mM Citrate; 40 mM sodium phosphate; 40 mM ammonium acetate; 300 mM NaCl, the 2× buffer was titrated to different pHs, at 0.5 pH increments from pH 3.0 to pH 11.0 using NaOH or HCl). To each well containing the 100 of universal buffer, 100 μL of the TNS/Liposome reaction mixture is then added to achieve a final volume of 200 μL, a TNS concentration of 5.92 μM and a final lipid concentration of 20 μM per well. After 30 min at 37° C. the fluorescence was read at an excitation wavelength of 322 nm and emission wavelength of 431 nm. The pKa was determined at the pH corresponding to the midpoint between the maximum and the minimum fluorescence intensity, utilizing sigmoidal fit software.
TNS dye (2,6-TNS (2-(p-toluidinyl)naphthalene-6-sulfonic acid, sodium salt; Invitrogen T53; MW 335.4).

For a further data set, the system named is ApoB in Hep3B cells. Briefly: In vitro gene silencing activity, formulation with UsiRNA against ApoB in Hep3B cells, quantitative RT-PCR. It is filed as cell-based. Conditions: UsiRNA DX10008, Hep3B, 24 h. Here is the method:
The methodology for determining the in vitro gene silencing activity of an activity-generating delivery molecule was as follows: Hep3B cells were transfected in triplicate, 96-well format with a formulation of the activity-generating delivery molecule and a UsiRNA against ApoB. After 24 h, cellular RNA was prepared and evaluated by quantitative RT-PCR for target ApoB and the normalizer 36B4 or GAPDH expression levels.
The in vitro activity was generated with a UsiRNA against ApoB in Hep3B cells.

In another data set the test system is Factor VII mRNA. Briefly: In vivo gene knockdown in Balb/c mice, tail-vein injection of formulation with UsiRNA. The arrangement: species or system mouse. Conditions: DMPE-PEG2k 2 mole %, UsiRNA against Factor VII mRNA. The source says: In vivo gene knockdown activity was generated in Balb/c mice administered by tail-vein injection with a formulation including the activity-generating delivery molecule and a UsiRNA against Factor VII mRNA.

A short description of data set [1]: DSC measurement of 2nd melting behavior. The class given is physicochemical. The note with it: heat/cool/heat cycle. As for the experimental part: The 2nd melting behavior of activity-generating delivery molecules was assessed on a TA Instruments Q200 Differential Scanning calorimeter in a heat/cool/heat cycle by weighing 0.5 to 1.5 mg of the powder into an aluminum pan and heating to 175° C. at 20° C./min., cooling to −50° C. at 10° C./min., and heating to 200° C. at 20° C./min.
Without intending to be bound by any particular theory, the melting behavior of an activity-generating delivery molecule may relate to its ability to form lamellar, bilayer, or other ordered structures which can be useful for carrying an active agent to interact with, and enter a cellular compartment to generate pharmacological or biological activity. […] A substance having less ordered structures may provide greater membrane fusion ability which can be needed for delivery of the active agent to a cell. Thus, differential scanning calorimetry can be used to distinguish the properties of compounds with certain significant thermotropic phases or transitions from compounds with different properties and less significant thermotropic phases or transitions.

For the next data set, the system named is Factor VII. Briefly: In vivo gene-silencing dose-response, UsiRNA against Factor VII in formulation, tail-vein injection. Conditions: normal Balb/c mice, single tail-vein IV injection, serum F-VII at 48 hr post dose; dose as active UsiRNA per kg; formulated with cholesterol, C18:2-DAB-C16, DSPE-PEG2k 51:31:17:1 mole %. The arrangement: species or system mouse. Here is the method:
In FIG. 1 is shown a chart of the gene-silencing dose-response in vivo mouse for a UsiRNA against Factor VII administered by tail-vein injection in a formulation including the activity-generating delivery molecule C18:2-DAP(N,N-diMe)-C18:2. The calculated ED50 was 30 μg/kg. The x-axis of FIG. 1 refers to mgA/kg which is by pharmaceutical convention the mg of active UsiRNA per kg body weight. Here it refers to the fraction of UsiRNA that is duplexed, and encapsulated or carried by the activity-generating delivery molecules.
Animals were each administered a single tail-vein IV injection, and sacrificed at 48 hr post dose for analysis of serum F-VII.
The activity-generating molecule C18:2-DAP(N,N-diMe)-C18:2 was formulated with cholesterol, a second activity-generating molecule C18:2-DAB-C16, and DSPE-PEG2k at concentrations of 51:31:17:1 mole %, respectively.

Setting [2] is: delivery molecule 25.00 mole %, CHOL 75.00 mole %.
Where [3] appears, read: delivery molecule 25.00 mole %, DOPE 75.00 mole %.
The mark [4] stands for this setting: delivery molecule 33.33 mole %, CHOL 66.66 mole %.
Setting [5] is: delivery molecule 33.33 mole %, DOPE 66.66 mole %.
Setting [6] is: delivery molecule 50.00 mole %, CHOL 50.00 mole %.
Setting [7] is: delivery molecule 50.00 mole %, DOPE 50.00 mole %.
The mark [8] stands for this setting: delivery molecule 66.66 mole %, CHOL 33.33 mole %.
Where [9] appears, read: delivery molecule 66.66 mole %, DOPE 33.33 mole %.
[10] abbreviates: delivery molecule 75.00 mole %, CHOL 25.00 mole %.
The mark [11] stands for this setting: delivery molecule 75.00 mole %, DOPE 25.00 mole %.

Usually pKa stands for the pH at which an ionisable group is half protonated.

Each structure is given as a SMILES string.

As to `CCCCCCCC/C=C\CCCCCCCCNC(=O)C(CN)NC(=O)CCCCCCC/C=C\CCCCCCCC` (stereo not drawn) [C18:1-DAP(NH3 + Cl—)-C18:1, N-(3-amino-1-((Z)-octadec-9-en-1-ylamino)-1-oxopropan-2-yl)oleamide], the pKa in the data set “TNS dye assay for pKa” was 6. The “In vitro Gene Knockdown %” value in the data set with ApoB in Hep3B cells (setting [2]) worked out at 83%; with ApoB in Hep3B cells (setting [3]), 81%; in the data set with ApoB in Hep3B cells (setting [4]), 80%; in the data set on ApoB in Hep3B cells (setting [5]) it was 83%; with ApoB in Hep3B cells (setting [6]), 73%; in the data set with ApoB in Hep3B cells (setting [7]), 82%. Besides, the “In vitro Gene Knockdown %” value in the data set with ApoB in Hep3B cells (setting [8]) stood at 76%; in the data set on ApoB in Hep3B cells (setting [9]) it was 72%; in the data set on ApoB in Hep3B cells (setting [10]) it was 79%; in the data set with ApoB in Hep3B cells (setting [11]), 77%.
`CCCCC/C=C\C/C=C\CCCCCCCCNC(=O)C1CC(N(C)C)CN1C(=O)CCCCCCC/C=C\C/C=C\CCCCC` (stereo not drawn) [C18:2-aminoPro(N—Me,N—Me)-C18:2]: in the data set “TNS dye assay for pKa”, the “pKa as measured by TNS dye assay” value turned out to be 6.6. Moreover, the “In vitro Gene Knockdown %” value came out at 79% with ApoB in Hep3B cells (setting [2]); 66% in the data set with ApoB in Hep3B cells (setting [3]); 72% in the data set on ApoB in Hep3B cells (setting [4]); 74% with ApoB in Hep3B cells (setting [5]); 62% in the data set on ApoB in Hep3B cells (setting [6]); 82% in the data set on ApoB in Hep3B cells (setting [7]). Moreover, the “In vitro Gene Knockdown %” value with ApoB in Hep3B cells (setting [8]) was determined as 53%; with ApoB in Hep3B cells (setting [9]) it was 73%; with ApoB in Hep3B cells (setting [10]), 59%; with ApoB in Hep3B cells (setting [11]) it was 68%. For the same molecule, the “In vivo Gene Knockdown %” value is recorded as 68% with Factor VII mRNA (delivery molecule 49 mole %, CHOL 49 mole %) and 48% in the data set with Factor VII mRNA (delivery molecule 65.3 mole %, CHOL 32.7 mole %).
As to `CCCCC/C=C\C/C=C\CCCCCCCCNC(=O)C(N)NC(=O)CCCCCCC/C=C\C/C=C\CCCCC` (stereo not drawn) [C18:2-DAA-C18:2, (9Z,12Z)—N-(1-amino-2-((9Z,12Z)-octadeca-9,12-dien-1-ylamino)-2-oxoethyl) octadeca-9,12-dienamide], in “TNS dye assay for pKa”, the pKa is 4.9.
As to `CCCCC/C=C\C/C=C\CCCCCCCCNC(=O)C(CN)NC(=O)CCCCCCC/C=C\C/C=C\CCCCC` (stereo not drawn) [C18:2-DAP-C18:2, (9Z,12Z)—N-(3-amino-1-((9Z,12Z)-octadeca-9,12-dien-1-ylamino)-1-oxopropan-2-yl)octadeca-9,12-dienamide], the pKa in “TNS dye assay for pKa” is 7.6.
For the molecule `CCCCC/C=C\C/C=C\CCCCCCCC(=O)NC(CN)C(=O)NCCCCCCCC/C=C\CCCCCCCC` (stereo not drawn) [C18:2-Dap(NH3 + Cl—)-C18:1, (9Z,12Z)—N-(3-amino-1-((Z)-octadec-9-en-1-ylamino)-1-oxopropan-2-yl)octadeca-9,12-dienamide], the “In vitro Gene Knockdown %” value is reported as 64% in the data set on ApoB in Hep3B cells (setting [2]); 85% in the data set with ApoB in Hep3B cells (setting [3]); 62% with ApoB in Hep3B cells (setting [4]); 83% with ApoB in Hep3B cells (setting [5]); 56% in the data set on ApoB in Hep3B cells (setting [6]); 83% with ApoB in Hep3B cells (setting [7]). The “In vitro Gene Knockdown %” value was 61% with ApoB in Hep3B cells (setting [8]), 69% with ApoB in Hep3B cells (setting [9]), 52% in the data set with ApoB in Hep3B cells (setting [10]) and 48% in the data set on ApoB in Hep3B cells (setting [11]).
Turning to `CCCCCC=CCC=CCCCCCCCC(=O)NC(CN(C)C)C(=O)NCCCCCCCCC=CCCCCCCCC` (stereo not drawn) [C18:2-DAP(Me,Me)-C18:1], the “pKa as measured by TNS dye assay” value in “TNS dye assay for pKa” is recorded as 5.3. The “In vitro Gene Knockdown %” value is reported as 90% with ApoB in Hep3B cells (setting [2]); 86% in the data set with ApoB in Hep3B cells (setting [3]); 91% in the data set with ApoB in Hep3B cells (setting [4]); 87% in the data set on ApoB in Hep3B cells (setting [5]); 88% in the data set on ApoB in Hep3B cells (setting [6]); 84% with ApoB in Hep3B cells (setting [7]). Also, the entries for the “In vitro Gene Knockdown %” value in the data set with ApoB in Hep3B cells (setting [8]), in the data set with ApoB in Hep3B cells (setting [9]) and in the data set with ApoB in Hep3B cells (setting [11]) were 91%, 85% and 84%, respectively.
As to `CCCCCCCCCCCCCCCCCCNC(=O)C(CCNC(=N)N)NC(=O)CCCCCCCCCCCCCCCCC` (stereo not drawn) [CH3(CH2)16(CO)-norArg-NH(CH2)17CH3, reference compound], in data set [1], the “2nd melting behavior, thermal transitions by differential scanning calorimetry” value is “presence of significant thermal or melting transitions”.
On to `CCCCC/C=C\C/C=C\CCCCCCCCNC(=O)C(CCN)NC(=O)CCCCCCC/C=C\C/C=C\CCCCC` (stereo not drawn) [C(18:2)oleoyl-DAB-C(18:2)alkenylamino, (9Z,12Z)—N-(4-amino-1-((9Z,12Z)-octadcca-9,12-dien-1-ylamino)-1-oxobutan-2-yl) octadeca-9,12-dienamide], for which the “2nd melting behavior, thermal transitions by differential scanning calorimetry” value in data set [1] is “complete lack of thermal transition peaks”.
Consider `CCCCC/C=C\C/C=C\CCCCCCCCNC(=O)C(CN(C)C)NC(=O)CCCCCCC/C=C\C/C=C\CCCCC` (stereo not drawn), for which the “calculated ED50, gene silencing in vivo” value in the data set with Factor VII was 0.03 mg/kg. Also, the pKa in “TNS dye assay for pKa” is 5.8. For the same molecule, the “In vitro Gene Knockdown %” value in the data set on ApoB in Hep3B cells (setting [2]) came to 6%; in the data set on ApoB in Hep3B cells (setting [5]), 86%; with ApoB in Hep3B cells (setting [6]), 19%; in the data set on ApoB in Hep3B cells (setting [7]) it was 87%; with ApoB in Hep3B cells (setting [8]), 19%; with ApoB in Hep3B cells (setting [9]), 81%. The “In vitro Gene Knockdown %” value with ApoB in Hep3B cells (setting [11]) was 18%.
